According to the NIST ThermoML archive (doi:10.1016/j.fluid.2017.10.023):

Assay: xn = mol fraction of the nth substance listed
Conditions: 313.15 K; for surface tension liquid-gas: Pendant drop shape; for mass density: Liquid, Vibrating tube method

CCCCC [pentane] + C
Conditions | mass density [kg/m3] | surface tension liquid-gas [mN/m]
x2 = 0.048 | 594.4 | 12
x2 = 0.101 | 581 | 10.13
x2 = 0.181 | 558.8 | 7.61
x2 = 0.263 | 533.1 | 5.37
x2 = 0.351 | 501.8 | 3.26
x2 = 0.43 | 466.3 | 1.68
x2 = 0.501 | 431.5 | 0.761
